Measurements from US8828907B2, “Active ingredient combinations having insecticidal and acaricidal properties” (Bayer CropScience AG, priority 2009, dated 2014).

What was measured:
Format in all cases: in vivo
Settings in all cases: single active compound
[1] = system: green peach aphid (Myzus persicae); assay: Myzus persicae test (spray on infested cabbage leaves)
Protocol: (§1) Solvents: 78 parts by weight of acetone • • 1.5 parts by weight of dimethylformamide
(§2) Emulsifier: 0.5 part by weight of alkylaryl polyglycol ether
(§3) To produce a suitable preparation of active compound, 1 part by weight of active compound is mixed with the stated amount of solvent and emulsifier, and the concentrate is diluted with emulsifier-containing water to the desired concentration.
Cabbage leaves (Brassica oleracea) which are heavily infested by the green peach aphid (Myzus persicae) are treated by spraying with the active compound preparation of the desired concentration.
After the desired period of time, the kill in % is determined. 100% means that all of the aphids have been killed; 0% means that none of the aphids have been killed. The kill rates determined are entered into Colby's formula (see above).

[2] = system: larvae of the mustard beetle (Phaedon cochleariae); assay: Phaedon cochleariae larvae test (sprayed cabbage leaves)
Protocol: as §1, §2, §3
Cabbage leaves (Brassica oleracea) are treated by spraying with the active ingredient formulation of the desired concentration and populated with larvae of the mustard beetle (Phaedon cochleariae) while the leaves are still moist.
After the desired period of time, the kill in % is determined. 100% means that all beetle larvae have been killed; 0% means that none of the beetle larvae have been killed. The kill rates determined are entered into Colby's formula (see above).

[3] = system: larvae of the armyworm (Spodoptera frugiperda); assay: Spodoptera frugiperda larvae test (sprayed cabbage leaves)
Protocol: as §1, §2, §3
Cabbage leaves (Brassica oleracea) are treated by being sprayed with the preparation of active compound of the desired concentration and are populated with larvae of the armyworm (Spodoptera frugiperda) while the leaves are still moist.
After the desired period of time, the kill in % is determined. 100% means that all caterpillars have been killed; 0% means that none of the caterpillars have been killed. The kill rates determined are entered into Colby's formula (see above).

[4] = system: greenhouse red spider mite (Tetranychus urticae); assay: Tetranychus urticae test (OP-resistant/spray treatment)
Protocol: as §1, §2, §3
Discs of bean leaves (Phaseolus vulgaris) which are infested by all stages of the greenhouse red spider mite (Tetranychus urticae) are sprayed with an active compound preparation of the desired concentration.
After the desired period of time, the effect in % is determined. 100% means that all of the spider mites have been killed; 0% means that none of the spider mites have been killed.

| SMILES | Kill in % after 1d ([1]; 4 g/ha) | Kill in % after 2d ([2]; 4 g/ha) | Kill in % after 2d ([2]; 100 g/ha) | Kill in % after 2d ([3]; 0.16 g/ha) | Kill in % after 2d ([3]; 0.8 g/ha) | Kill in % after 2d ([3]; 20 g/ha) | Kill in % after 6d ([4]; 20 g/ha) | Kill in % after 2d ([3]; 4 g/ha) | Kill in % after 6d ([4]; 100 g/ha) | Kill in % after 1d ([1]; 0.8 g/ha) |
| --- | --- | --- | --- | --- | --- | --- | --- | --- | --- | --- |
| O=C1C=C(N(CCF)Cc2ccc(Cl)nc2)CO1 [compound (I-4), 4-{[(6-chloropyrid-3-yl)methyl](2-fluoroethyl)amino}furan-2(5H)-one] | 30% | 0% | 0% | 0% | 0% | 0% | 0% |  |  |  |
| O=C1C=C(N(Cc2ccc(Cl)nc2)CC(F)F)CO1 [compound (I-5), 4-{[(6-chloropyrid-3-yl)methyl](2,2-difluoroethyl)amino}furan-2(5H)-one] |  | 0% | 0% |  | 0% |  | 0% | 0% | 0% |  |
| CN(Cc1cnc(Cl)c(F)c1)C1=CC(=O)OC1 [compound (I-6), 4-{[(6-chloro-5-fluorpyrid-3-yl)methyl](methyl)amino}furan-2(5H)-one] |  |  | 0% |  | 0% | 0% |  |  |  | 70% |
| O=C(NC(=O)c1c(F)cccc1F)Nc1ccc(Oc2ccc(C(F)(F)F)cc2Cl)cc1F [flufenoxuron, reference compound] | 0% |  | 0% |  | 33% |  | 0% |  |  | 0% |
| O=C(NC(=O)c1c(F)cccc1F)Nc1cc(Cl)c(OC(F)(F)C(F)C(F)(F)F)cc1Cl (stereo not drawn) [lufenuron, reference compound] | 0% |  | 17% |  |  |  |  |  |  |  |
| COc1cccc(C(=O)NN(C(=O)c2cc(C)cc(C)c2)C(C)(C)C)c1C [methoxyfenozide, reference compound] | 0% |  |  |  |  | 83% |  | 33% | 0% |  |
| O=C(NC(=O)c1ccccc1Cl)Nc1ccc(OC(F)(F)F)cc1 [triflumuron, reference compound] | 0% | 0% |  | 50% | 33% |  |  |  |  | 0% |
